Laboratory results as given in patent US20070219212A1, “Pyranouidole Derivatives and the Use Thereof for the Treatment of Hepatitis C Virus Infection or Disease” (priority 2004, published 2007).
Where two headings read alike, the source gives them in different places.

Experiments:
[1] = biological target: T1, NS5B from the BK strain (genotype 1b) (Hepatitis C virus genotype 1b, UniProt P26663); assay: Hepatitis C polymerase (NS5B, BK strain) inhibition, radioactive filter assay; format: biochemical; settings: NS5B BK strain (genotype 1b)
T1 construct: NS5B from the BK strain (genotype 1b) is expressed in E coli as a protein in which the 21 C-terminal amino acids are replaced; made in house; host or cells: E. coli
Description: (§1) The ability of the compounds of the present invention to inhibit Hepatitis C Polymerase was established by the following experimental procedure:
NS5B from the BK strain (genotype 1b) is expressed in E coli as a protein in which the 21 C-terminal amino acids are replaced with a short linker and a hexahistidine tag ([…]). The purified protein is mixed with radioactive nucleotides and allowed to replicate a heteropolymeric RNA substrate, primed by an endogenous short hairpin, resulting in an approximately 760 nt product. The radioactive product is captured on a filter and quantitated after removal of the unincorporated nucleotides.
(§2) • 0.5M Na Phosphate buffer. Per liter, weigh 134 gr Na2HPO4.7H2O, add water to 900 ml. Adjust pH to 7.0 with phosphoric acid. Top off with water to 1 L. • Dilute nucleotides 1:1000 to 10 μM (GTP and CTP) or 1:100 to 100 μM (ATP and UTP) into RNase free water. Procedure: • (1) Compounds 10 μl at […] in 15% dimethylsulfoxide (DMSO) When starting from 100 μg/ml compound stock in 1% DMSO: Dispense 5 μl 30% DMSO per well Dispense 5 μl compound (100 μg/ml) per well. When starting from 50 μg/ml compound stock in 15% DMSO: Add 10 μl compound per well.
(§3) Add 20 μl enzyme mix into each well of the assay plate. Incubate compound and enzyme at room temperature for 15 minutes • (3) Template mix—prepare ahead
(§4) Spin down a tube of RNA (5 μg/tube stored in 75% ethanol and 0.3 M sodium acetate) in a microcentrifuge for 20 minutes at 4° C. One tube is enough for 1-1.5 plates. Remove as much ethanol from the tube as possible by inverting the tube. Be gentle, pellet RNA may not adhere to the tube. Vacuum dry the RNA. Resuspend the RNA by adding 1 ml of DEPC water, close the cap of the tube tightly. To dissolve RNA, incubate RNA solution on ice for ˜60 minutes and gently vortex. Spin briefly to ensure all RNA solution is down to the bottom of the tube before opening cap. Gently transfer RNA solution into a 5 ml or larger tube. Add another 3 ml of DEPC water (total 4 ml of volume).
(§5) Add the following volumes of reagents
(§6) Add 20 μl template mix per reaction (i.e. 20 ng of pOF per reaction or ˜3 nM) • (4) Incubate reaction at room temperature (22-25° C.) for 2 hours. • (5) Stop reaction by adding 50 μl of 170 mM EDTA.
(§7) Final concentration of EDTA is 85 mM. • (6) Prewet filters of Millipore multiscreen assay plate by adding 200 μl of 0.5 M sodium phosphate buffer, pH 7.0 into each well. Let stand at room temperature for 2-3 minutes. • (7) Place the multiscreen filter plate onto a Millipore Manifold and turn on vacuum to allow buffer to flow through. Turn off vacuum. Transfer 80 μl of the reaction product into each well of the filter plate. Let stand for 2-3 minutes. Turn on vacuum to filter reaction product. • (8) Turn off vacuum. Add 200 μl of 0.5 M sodium phosphate buffer, pH 7.0 into each well to wash filter. Turn on vacuum.
(§8) Repeat step (8) three more times. • (9) Remove polypropylene bottom. Spot dry filter at the bottom with paper towel. Air dry filter plate on a bench for 1 hour. Add 40 μl Super Mix scintillant. Seal top of the plate with a tape. Place plate into a Packard carrier or micro-beta carrier. • (10) Count plate using a Packard Topcount or micro-beta counter. Count (for example using Program 10) for ^33P in Top count or ^33P program in micro-beta.
(§9) See, Ferrari et al. 1999. J. Virology 73:1649-1654: “Characterization of soluble Hepatitis C virus RNA-dependent RNA polymerase expressed in E. coli and Takamizawa et al. 1991” and J. Virology 65:1105-1113: “Structure and characterization of the Hepatitis C virus genome isolated from human carriers,” both references are hereby incorporated by reference.

[2] = biological target: BB7 RNA-dependent RNA polymerase hepatitis C virus protein (Con1 HCV sequence) (Hepatitis C virus genotype 1b, UniProt Q9WMX2); assay: Hepatitis C polymerase (BB7) inhibition; format: biochemical
Description: For purposes of this invention, the term “BB7” denotes an RNA-dependent RNA polymerase hepatitis C virus protein sequence which is derived from HCV replicon. A discussion of BB7 and related technology can be found in Blight, K. et al. (2000) Science 290:1972-1974. BB7 can be licensed from Apath, LLC (893 North Warson Road, Saint Louis Mo. 63141, USA). BB7 is also referred to as Con1 HCV sequence and discussions of Con1 can be found in the following references: Lohmann, V. et al. (1999) Science 285:110-113; Pietschmann, T. et al. (2001) J. Virol. […]:1252-1264; Lohmann, V. et al. (2001) J. Virol. 75:1437-1449.
as §1, §2, §3, §4, §5, §6, §7, §8, §9

[3] = BB7 (Con1) NS5B, read-out: BB7 IC50

T1 sequence (P26663 2420-2989): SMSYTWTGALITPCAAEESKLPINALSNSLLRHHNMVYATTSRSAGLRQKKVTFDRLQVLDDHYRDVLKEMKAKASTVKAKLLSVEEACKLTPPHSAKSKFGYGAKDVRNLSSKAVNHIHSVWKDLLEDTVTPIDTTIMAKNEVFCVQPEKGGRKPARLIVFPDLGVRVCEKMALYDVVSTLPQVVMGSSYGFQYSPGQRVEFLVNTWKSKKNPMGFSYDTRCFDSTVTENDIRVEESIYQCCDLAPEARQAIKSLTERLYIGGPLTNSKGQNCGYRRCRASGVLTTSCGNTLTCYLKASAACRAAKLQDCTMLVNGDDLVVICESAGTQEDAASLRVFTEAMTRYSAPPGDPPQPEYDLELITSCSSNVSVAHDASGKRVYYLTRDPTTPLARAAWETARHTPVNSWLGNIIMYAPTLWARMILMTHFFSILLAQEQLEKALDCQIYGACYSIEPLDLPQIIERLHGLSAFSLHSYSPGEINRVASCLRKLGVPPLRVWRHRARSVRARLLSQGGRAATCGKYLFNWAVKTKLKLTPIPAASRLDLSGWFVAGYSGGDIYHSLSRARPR
BB7 RNA-dependent RNA polymerase hepatitis C virus protein (Con1 HCV sequence), sequence (Q9WMX2 2420-3010): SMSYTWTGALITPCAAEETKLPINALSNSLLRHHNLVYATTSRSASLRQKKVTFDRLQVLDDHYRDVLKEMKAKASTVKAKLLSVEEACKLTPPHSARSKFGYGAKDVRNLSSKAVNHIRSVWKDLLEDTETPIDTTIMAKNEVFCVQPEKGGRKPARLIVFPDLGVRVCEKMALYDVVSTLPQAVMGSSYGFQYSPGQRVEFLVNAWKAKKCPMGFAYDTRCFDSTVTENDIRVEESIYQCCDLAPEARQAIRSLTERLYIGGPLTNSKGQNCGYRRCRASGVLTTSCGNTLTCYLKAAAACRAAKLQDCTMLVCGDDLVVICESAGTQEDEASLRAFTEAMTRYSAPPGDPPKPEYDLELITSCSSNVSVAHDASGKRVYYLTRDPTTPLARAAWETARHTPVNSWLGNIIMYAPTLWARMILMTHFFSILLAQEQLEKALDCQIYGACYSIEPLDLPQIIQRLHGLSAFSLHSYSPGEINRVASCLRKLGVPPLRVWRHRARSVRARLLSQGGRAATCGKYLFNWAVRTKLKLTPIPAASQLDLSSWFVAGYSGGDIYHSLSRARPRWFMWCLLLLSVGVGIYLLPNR

`CCOCCOc1cc(C#N)c2c3c([nH]c2c1C)C(CC(=O)O)([C@@H](C)CC)OCC3` (mixture of isomers) [Example 33, (1R*,10S)-[1-sec-Butyl-5-cyano-7-(2-ethoxy-ethoxy)-8-methyl-1,3,4,9-tetrahydro-pyrano[3,4-b]indol-1-yl]-acetic acid] gave an IC50 [1] of under 500 nM and an IC50 [2] of under 500 nM.

Molecule `CCCC1(CC(=O)O)OCCc2c1[nH]c1c(C)c(OCc3c(C)noc3C)cc(C#N)c21` (stereo not shown) [Example 80] has an IC50 [1] of under 500 nM and an IC50 [2] of under 500 nM.

`CCC[C@]1(CC(=O)O)OCCc2c1[nH]c1c(C)c(OCc3cc(C)n(C)n3)cc(C#N)c21` [Example 25, (R)-[5-Cyano-7-(1,5-dimethyl-1H-pyrazol-3-ylmethoxy)-8-methyl-1-propyl-1,3,4,9-tetrahydro-pyrano[3,4-b]indol-1-yl]-acetic acid] showed an IC50 [1] of under 500 nM and an IC50 [2] of under 500 nM.

In the case of `CCC[C@]1(CC(=O)O)OCCc2c1[nH]c1c(C)c(OCCOCC)cc(C#N)c21` [Example 118], the IC50 [1] is reported as under 500 nM and the IC50 [2] is reported as under 500 nM.

`CCCC1(CC(=O)O)OCCc2c1[nH]c1c(C)c(OCc3cc[nH]n3)cc(C#N)c21` (stereo not shown) [Example 83] gave an IC50 [1] of under 500 nM and an IC50 [2] of under 500 nM.

`CCCC1(CC(=O)O)OCCc2c1[nH]c1c(C)c(OCCOCCOC)cc(C#N)c21` (stereo not shown) [Example 115] gave an IC50 [1] of under 500 nM and an IC50 [2, 3] of under 500 nM.

In the case of `CCCC1(CC(=O)O)OCCc2c1[nH]c1c(C)c(OCc3nn(C)cc3Cl)cc(C#N)c21` (stereo not shown) [Example 75], the IC50 [1] is reported as under 500 nM and the IC50 [2] is reported as under 500 nM.

`CCCC1(CC(=O)O)OCCc2c1[nH]c1c(C)c(OCCOCC)cc(C#N)c21` (stereo not shown) [Example 111] showed an IC50 [1] of under 500 nM and an IC50 [2] of under 500 nM.

`CCCC1(CC(=O)O)OCCc2c1[nH]c1c(C)c(OCc3ccc(N)nc3)cc(C#N)c21` (stereo not shown) [Example 69] gave an IC50 [1] of under 500 nM and an IC50 [2] of under 500 nM.

For `CCCC1(CC(=O)O)OCCc2c1[nH]c1c(C)c(COCC3CCC3)cc(C#N)c21` (stereo not shown) [Example 9, (5-Cyano-7-cyclobutylmethoxymethyl-8-methyl-1-propyl-1,3,4,9-tetrahydro-pyrano[3,4-b]indol-1-yl)-acetic acid], the IC50 [1] was 500 to 5000 nM and the IC50 [2] was 500 to 5000 nM.

`CCCC1(CC(=O)O)OCCc2c1[nH]c1c(C)c(OC(C)c3cc(C)n(C)n3)cc(C#N)c21` (stereo not shown) [Example 84] showed an IC50 [1] of under 500 nM and an IC50 [2, 3] of under 500 nM.

Molecule `CCC[C@]1(CC(=O)O)OCCc2c1[nH]c1c(C)c(OCCCOC)cc(C#N)c21` [Example 27, (R)-[5-Cyano-7-(3-methoxy-propoxy)-8-methyl-1-propyl-1,3,4,9-tetrahydro-pyrano[3,4-b]indol-1-yl]-acetic acid] has an IC50 [1] of under 500 nM and an IC50 [2] of under 500 nM.

`CCCC1(CC(=O)O)OCCc2c1[nH]c1c(C)c(O[C@@H]3CCNC3)cc(C#N)c21` (stereo partly shown) [Example 42] gave an IC50 [1] of under 500 nM and an IC50 [2] of 500 to 5000 nM.

`CCCC1(CC(=O)O)OCCc2c1[nH]c1c(C)c(OCC(C)OC)cc(C#N)c21` (stereo not shown) [Example 121] gave an IC50 [1] of under 500 nM and an IC50 [2] of under 500 nM.

`CCCC1(CC(=O)O)OCCc2c1[nH]c1c(C)c(OCc3cnccn3)cc(C#N)c21` (stereo not shown) [Example 64] showed an IC50 [1] of under 500 nM and an IC50 [2] of under 500 nM.

Molecule `CCCC1(CC(=O)O)OCCc2c1[nH]c1c(C)c(OCOC)cc(C#N)c21` (stereo not shown) [Example 113] has an IC50 [1] of under 500 nM and an IC50 [2] of under 500 nM.

`CCCC1(CC(=O)O)OCCc2c1[nH]c1c(C)c(OCc3cc(C)on3)cc(C#N)c21` (stereo not shown) [Example 56] gave an IC50 [1] of under 500 nM and an IC50 [2] of under 500 nM.

`CCCC1(CC(=O)O)OCCc2c1[nH]c1c(C)c(COCC3CCCC3)cc(C#N)c21` (stereo not shown) [Example 10, (5-Cyano-7-cyclopentylmethoxymethyl-8-methyl-1-propyl-1,3,4,9-tetrahydro-pyrano[3,4-b]indol-1-yl)-acetic acid] showed an IC50 [1] of 500 to 5000 nM and an IC50 [2] of 500 to 5000 nM.

For `CCCC1(C(=O)O)OCCc2c1[nH]c1c(C)c(OCCOC)cc(C#N)c21` (stereo not shown) [Example 31, 5-Cyano-7-(2-methoxy-ethoxy)-8-methyl-1-propyl-1,3,4,9-tetrahydro-pyrano[3,4,-b]indole-1-carboxylic acid], the IC50 [1] was 500 to 5000 nM and the IC50 [2] was 500 to 5000 nM.

Molecule `CCCC1(CC(=O)O)OCCc2c1[nH]c1c(C)c(OCc3csc(C(C)C)n3)cc(C#N)c21` (stereo not shown) [Example 72] has an IC50 [1] of under 500 nM and an IC50 [2, 3] of under 500 nM.
